Assay results reported in BindingDB's records for doi:10.1021/jm00384a023 (1987).

Experiment: Inhibitor concentration required to block 50% of the specific [3H]PAF binding, obtained as natural product.

| IC50 [µM] | Structure (SMILES) |
| --- | --- |
| 0.07 | CCCC1=C[C@@]2(OC)C(=CC1=O)O[C@H](c1ccc(OC)c(OC)c1)[C@H]2C |
| 0.5 | C=CCC1=CC2(OCC)C(=CC1=O)O[C@H](c1ccc(OC)c(OC)c1)[C@H]2C (some centres not stated) |
